From ChEMBL document CHEMBL5291721, “A preclinical secondary pharmacology resource illuminates target-adverse drug reaction associations of marketed drugs” (Nat Commun, 2023)

Experiments:
Adenosine receptor A3 = molecular target: T1, Adenosine receptor A3 (Homo sapiens, UniProt P0DMS8)
T1 sequence (P0DMS8 whole entry): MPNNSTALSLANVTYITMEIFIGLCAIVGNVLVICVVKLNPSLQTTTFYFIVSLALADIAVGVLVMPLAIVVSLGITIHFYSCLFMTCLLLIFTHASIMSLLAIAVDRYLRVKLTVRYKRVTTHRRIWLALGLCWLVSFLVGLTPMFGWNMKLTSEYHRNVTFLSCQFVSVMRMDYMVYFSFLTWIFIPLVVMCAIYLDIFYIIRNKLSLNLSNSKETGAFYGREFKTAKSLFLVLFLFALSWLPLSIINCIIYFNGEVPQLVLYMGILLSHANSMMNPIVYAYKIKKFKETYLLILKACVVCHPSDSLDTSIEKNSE

[1] = molecular target: T2, Alpha-1A adrenergic receptor (Homo sapiens, UniProt P35348); type: functional, cell-based
T2 sequence (P35348 whole entry): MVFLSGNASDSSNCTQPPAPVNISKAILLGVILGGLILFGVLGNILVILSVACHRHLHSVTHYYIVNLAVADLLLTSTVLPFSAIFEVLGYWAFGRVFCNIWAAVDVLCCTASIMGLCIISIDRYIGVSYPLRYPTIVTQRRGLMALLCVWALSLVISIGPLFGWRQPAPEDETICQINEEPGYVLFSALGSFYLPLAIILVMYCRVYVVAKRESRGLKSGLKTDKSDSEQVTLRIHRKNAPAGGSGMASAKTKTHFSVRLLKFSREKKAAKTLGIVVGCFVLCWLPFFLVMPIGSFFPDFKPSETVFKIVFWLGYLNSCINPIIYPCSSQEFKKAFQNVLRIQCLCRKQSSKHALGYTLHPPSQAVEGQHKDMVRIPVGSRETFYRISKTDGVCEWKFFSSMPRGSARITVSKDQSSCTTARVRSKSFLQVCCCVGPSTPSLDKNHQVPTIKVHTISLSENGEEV

[2] = molecular target: T3, Alpha-2A adrenergic receptor (Homo sapiens, UniProt P08913)
T3 sequence (P08913 whole entry): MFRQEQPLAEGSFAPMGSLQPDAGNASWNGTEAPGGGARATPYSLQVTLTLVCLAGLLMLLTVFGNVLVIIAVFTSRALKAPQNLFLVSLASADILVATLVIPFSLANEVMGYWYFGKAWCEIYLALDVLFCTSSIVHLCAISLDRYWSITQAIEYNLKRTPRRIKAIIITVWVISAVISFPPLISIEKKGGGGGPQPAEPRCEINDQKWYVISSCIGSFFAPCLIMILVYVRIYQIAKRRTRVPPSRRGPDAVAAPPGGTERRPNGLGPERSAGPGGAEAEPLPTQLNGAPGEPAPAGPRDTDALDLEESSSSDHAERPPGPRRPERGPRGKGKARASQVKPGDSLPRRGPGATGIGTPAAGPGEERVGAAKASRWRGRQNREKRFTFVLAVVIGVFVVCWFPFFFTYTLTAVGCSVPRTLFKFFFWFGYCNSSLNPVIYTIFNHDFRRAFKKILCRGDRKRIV

[3] = molecular target: 3',5'-cyclic-AMP phosphodiesterase 4A (Homo sapiens, UniProt P27815); type: functional
Chain of 3',5'-cyclic-AMP phosphodiesterase 4A (P27815 whole entry): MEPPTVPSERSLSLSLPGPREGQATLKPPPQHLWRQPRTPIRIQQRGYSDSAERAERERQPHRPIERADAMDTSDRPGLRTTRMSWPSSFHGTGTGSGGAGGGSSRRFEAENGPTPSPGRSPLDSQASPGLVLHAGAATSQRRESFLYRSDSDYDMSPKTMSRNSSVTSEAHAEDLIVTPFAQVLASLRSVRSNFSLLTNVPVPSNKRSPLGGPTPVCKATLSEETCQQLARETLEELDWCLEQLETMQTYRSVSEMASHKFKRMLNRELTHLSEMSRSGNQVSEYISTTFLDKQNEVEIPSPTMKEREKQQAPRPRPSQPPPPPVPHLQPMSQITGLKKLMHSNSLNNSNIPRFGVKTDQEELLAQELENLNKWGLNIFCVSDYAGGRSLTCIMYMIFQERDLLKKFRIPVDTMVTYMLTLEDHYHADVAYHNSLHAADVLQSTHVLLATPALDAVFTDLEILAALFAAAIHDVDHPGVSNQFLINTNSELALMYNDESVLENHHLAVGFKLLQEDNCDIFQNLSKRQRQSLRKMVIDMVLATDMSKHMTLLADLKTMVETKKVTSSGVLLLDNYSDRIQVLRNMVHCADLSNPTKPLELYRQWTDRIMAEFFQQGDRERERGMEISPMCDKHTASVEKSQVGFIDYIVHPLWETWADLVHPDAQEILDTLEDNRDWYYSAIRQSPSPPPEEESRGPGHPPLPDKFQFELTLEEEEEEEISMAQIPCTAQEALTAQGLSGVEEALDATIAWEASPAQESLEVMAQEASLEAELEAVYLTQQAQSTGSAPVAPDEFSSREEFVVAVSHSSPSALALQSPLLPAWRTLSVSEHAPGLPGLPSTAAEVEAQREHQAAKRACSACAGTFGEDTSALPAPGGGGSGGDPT

Progesterone receptor = molecular target: T4, Progesterone receptor (Homo sapiens, UniProt P06401)
T4 sequence (P06401 whole entry): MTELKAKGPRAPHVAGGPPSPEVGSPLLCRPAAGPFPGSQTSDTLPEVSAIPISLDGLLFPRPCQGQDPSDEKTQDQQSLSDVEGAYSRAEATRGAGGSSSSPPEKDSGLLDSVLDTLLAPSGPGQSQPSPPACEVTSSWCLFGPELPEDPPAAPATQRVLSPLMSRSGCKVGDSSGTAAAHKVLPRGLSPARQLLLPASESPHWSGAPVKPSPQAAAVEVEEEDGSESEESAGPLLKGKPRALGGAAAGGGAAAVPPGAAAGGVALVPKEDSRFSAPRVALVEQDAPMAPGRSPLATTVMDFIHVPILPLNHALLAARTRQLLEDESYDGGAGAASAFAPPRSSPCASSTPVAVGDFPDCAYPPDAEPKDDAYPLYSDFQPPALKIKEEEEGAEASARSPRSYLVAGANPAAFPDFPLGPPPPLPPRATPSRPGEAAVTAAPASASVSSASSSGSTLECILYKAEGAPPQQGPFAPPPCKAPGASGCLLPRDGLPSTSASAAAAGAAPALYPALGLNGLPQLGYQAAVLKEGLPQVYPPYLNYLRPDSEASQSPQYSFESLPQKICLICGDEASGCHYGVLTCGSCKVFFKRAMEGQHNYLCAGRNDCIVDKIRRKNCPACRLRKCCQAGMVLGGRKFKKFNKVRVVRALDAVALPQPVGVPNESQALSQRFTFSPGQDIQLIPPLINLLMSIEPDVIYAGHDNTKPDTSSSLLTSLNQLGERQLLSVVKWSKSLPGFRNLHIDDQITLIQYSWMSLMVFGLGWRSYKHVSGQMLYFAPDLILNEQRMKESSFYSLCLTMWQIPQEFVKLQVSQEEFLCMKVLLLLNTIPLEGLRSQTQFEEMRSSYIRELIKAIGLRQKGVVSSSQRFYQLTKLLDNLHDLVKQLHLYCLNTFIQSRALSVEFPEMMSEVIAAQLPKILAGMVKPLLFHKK
Further: assay procedure not described here.

## CC(C)OC(=O)CCC/C=C\C[C@@H]1[C@@H](/C=C/C(F)(F)COc2ccccc2)[C@H](O)C[C@@H]1O [TAFLUPROST]
Adenosine receptor A3
  AC50: > 30 µM
[1]
  AC50: > 30 µM
[2]
  AC50: > 30 µM
[3]
  AC50: > 30 µM
Progesterone receptor
  AC50: > 30 µM

## Nc1ccc(C(=O)Oc2ccccc2)c(O)c1 [PHENYL AMINOSALICYLATE]
Adenosine receptor A3
  AC50: 18.4 µM
[1]
  AC50: 23 µM
[2]
  AC50: > 30 µM
[3]
  AC50: 14.5 µM
Progesterone receptor
  AC50: > 30 µM

## C=CCN1CC[C@]23CCCC[C@H]2[C@H]1Cc1ccc(O)cc13 [LEVALLORPHAN]
Adenosine receptor A3
  AC50: > 30 µM
[1]
  AC50: > 30 µM
[2]
  AC50: > 30 µM
[3]
  AC50: > 30 µM
Progesterone receptor
  AC50: > 30 µM

## N[C@@H](CO)C(=O)O [SERINE]
Adenosine receptor A3
  AC50: > 30 µM
[1]
  AC50: > 30 µM
[2]
  AC50: > 30 µM
[3]
  AC50: > 30 µM
Progesterone receptor
  AC50: > 30 µM

## [H]/N=C(\N/C(=N/[H])Nc1ccc(Cl)cc1)NC(C)C [PROGUANIL]
Adenosine receptor A3
  AC50: > 30 µM
[1]
  AC50: > 30 µM
[2]
  AC50: 11.9 µM
[3]
  AC50: > 30 µM
Progesterone receptor
  AC50: > 30 µM

## Cc1ccccc1C(=O)Nc1ccc(C(=O)N2CCCC(N(C)C)c3ccccc32)cc1 (stereo not given) [MOZAVAPTAN]
Adenosine receptor A3
  AC50: > 30 µM
[1]
  AC50: 18.8 µM
[2]
  AC50: > 30 µM
[3]
  AC50: > 30 µM
Progesterone receptor
  AC50: > 30 µM

## COc1c2ccoc2cc2oc(=O)ccc12 [BERGAPTEN]
Adenosine receptor A3
  AC50: 23.8 µM
[1]
  AC50: > 30 µM
[2]
  AC50: > 30 µM
[3]
  AC50: > 30 µM
Progesterone receptor
  AC50: 12.4 µM

## N[C@@H](CS)C(=O)O [CYSTEINE]
Adenosine receptor A3
  AC50: > 30 µM
[1]
  AC50: > 30 µM
[2]
  AC50: > 30 µM
[3]
  AC50: > 30 µM
Progesterone receptor
  AC50: > 30 µM

## CC(C)C[C@H](NC(=O)CNC(=O)c1cc(Cl)ccc1Cl)B(O)O [IXAZOMIB]
Adenosine receptor A3
  AC50: > 30 µM
[1]
  AC50: > 30 µM
[2]
  AC50: > 30 µM
[3]
  AC50: 29.9 µM
Progesterone receptor
  AC50: > 30 µM

## O=C(O)c1cc(/N=N/c2ccc(O)c(C(=O)O)c2)ccc1O [OLSALAZINE]
Adenosine receptor A3
  AC50: > 30 µM
[1]
  AC50: > 30 µM
[2]
  AC50: > 30 µM
[3]
  AC50: 13.2 µM
Progesterone receptor
  AC50: > 30 µM

## CN1CCCCC1CCN1c2ccccc2Sc2ccc([S+](C)[O-])cc21 (stereo not given) [MESORIDAZINE]
Adenosine receptor A3
  AC50: > 30 µM
[1]
  AC50: 0.0171 µM
[2]
  AC50: 2.59 µM
[3]
  AC50: > 30 µM
Progesterone receptor
  AC50: > 30 µM

## O=C1/C(=C2\Nc3ccc(S(=O)(=O)O)cc3C2=O)Nc2ccc(S(=O)(=O)O)cc21 [INDIGOTINDISULFONATE]
Adenosine receptor A3
  AC50: 0.995 µM
[1]
  AC50: > 30 µM
[2]
  AC50: > 30 µM
[3]
  AC50: > 30 µM
Progesterone receptor
  AC50: > 30 µM
